Measurements from ChEMBL document CHEMBL1135462, “Novel selective phosphodiesterase (PDE4) inhibitors. 4. Resolution, absolute configuration, and PDE4 inhibitory activity of cis-tetra- and cis-hexahydrophthalazinones” (J Med Chem, 2002).

Columns and labels:
[1] = biological target: Phosphodiesterase 4 (Homo sapiens, UniProt P27815+Q08499+Q07343+Q08493); test: Inhibitory activity against phosphodiesterase 4 carried out in the cytosol of human neutrophils; assay type: protein assay
[2] = system: Mus musculus; test: Percent inhibition of arachidonic acid induced mouse ear edema after 30 uM/kg peroral pretreatment; assay type: functional

| Compound | Log IC50 [1] | Inhibition [2] [%] |
| --- | --- | --- |
| COc1ccc(C2=NNC(=O)C3CC=CCC23)cc1OC1CCCC1 (centres undefined) | -7.1 |  |
| COc1ccc(C2=NNC(=O)[C@H]3CC=CC[C@@H]23)c2c1OC1(CCCC1)C2 | -6.6 |  |
| COc1ccc(C2=NN(C3C4CC5CC(C4)CC3C5)C(=O)C3CC=CCC23)cc1OC (racemic) | -9.2 | 51 |
| COc1ccc(C2=NNC(=O)[C@H]3CC=CC[C@@H]23)cc1OC | -6.1 |  |
| COc1ccc(C2=NNC(=O)[C@H]3CCCC[C@@H]23)cc1OC1CCCC1 | -5.8 |  |
| COc1ccc(C2=NNC(=O)[C@@H]3CCCC[C@H]23)c2c1OC1(CCCC1)C2 | -7.8 |  |
| CCOC(=O)c1ccc(N2N=C(c3ccc(OCC)c(OCC)c3)[C@H]3CC=CC[C@H]3C2=O)cc1 | -8.2 | 27 |
| COc1ccc(C2=NNC(=O)C3CC=CCC23)cc1OC (racemic) | -7 |  |
| COc1ccc(C2=NNC(=O)[C@H]3CCCC[C@@H]23)c2c1OC1(CCCC1)C2 | -5.6 |  |
| COc1ccc(C2=NNC(=O)C3CC=CCC23)c2c1OC1(CCCC1)C2 (racemic) | -8 |  |
| COc1ccc(C2=NNC(=O)[C@H]3CC=CC[C@@H]23)cc1OC1CCCC1 | -6.7 |  |
| COc1ccc(C2=NNC(=O)[C@@H]3CC=CC[C@H]23)cc1OC (relative stereo) | -7.3 |  |
| COc1ccc(C2=NNC(=O)[C@@H]3CCCC[C@H]23)cc1OC (relative stereo) | -6.9 |  |
| COc1ccc(C2CNC(=O)C2)cc1OC1CCCC1 (single isomer, unassigned; (-)) [ROLIPRAM] |  | 55 |
| COc1ccc(C2=NNC(=O)[C@@H]3CC=CC[C@H]23)cc1OC1CCCC1 (relative stereo) | -7.4 |  |
| CCOC(=O)c1ccc(N2N=C(c3ccc(OCC)c(OCC)c3)C3CC=CCC3C2=O)cc1 (racemic) | -8 |  |
| COc1ccc([C@H](Cc2ccncc2)c2ccccc2)cc1OC1CCCC1 [CDP840] | -7.7 | 48 |
| COc1ccc(C2=NNC(=O)[C@@H]3CCCC[C@H]23)cc1OC1CCCC1 (relative stereo) | -7.1 |  |
| CCOc1ccc(C2=NN(c3ccc(C(=O)O)cc3)C(=O)[C@@H]3CC=CC[C@H]23)cc1OCC | -8.3 | 47 |
| COc1ccc(C2=NNC(=O)C3CCCCC23)c2c1OC1(CCCC1)C2 (racemic) | -7.3 |  |
| COc1ccc(C2=NNC(=O)C3CCCCC23)cc1OC1CCCC1 (centres undefined) | -6.8 |  |
| COc1ccc(C2=NNC(=O)C3CCCCC23)cc1OC (centres undefined) | -6.4 |  |
| COc1ccc([C@]2(C#N)CC[C@@H](C(=O)O)CC2)cc1OC1CCCC1 [CILOMILAST] |  | 33 |
| COc1ccc(C2=NN(C3C4CC5CC(C4)CC3C5)C(=O)[C@@H]3CC=CC[C@H]23)cc1OC (single isomer, unassigned; (+)) | -9.3 | 49 |
| COc1ccc(C2=NNC(=O)[C@@H]3CC=CC[C@H]23)c2c1OC1(CCCC1)C2 | -8.5 |  |
| CCOc1ccc(C2=NN(c3ccc(C(=O)O)cc3)C(=O)C3CC=CCC23)cc1OCC (racemic) | -7.7 | 48 |
| COc1ccc(C2=NNC(=O)[C@H]3CCCC[C@@H]23)cc1OC | -5.1 |  |
| COc1ccc(C2=NN(C3C4CC5CC(C4)CC3C5)C(=O)[C@H]3CC=CC[C@@H]23)cc1OC (single isomer, unassigned; (-)) | -6.9 |  |
